Here are results for 24 compounds from PubChem BioAssay AID256 (DTP/NCI, 2004).

“And” between values parts separate entries of the source, which are not always exact repeats. Identical values can stand only once. Inconclusive results and toxic doses are left out.

For this experiment, the system named is CD2F1 mice, L1210 leukemia ip, survival T/C. The experiment in a line: NCI In Vivo Anticancer Drug Screen. Data for tumor model L1210 Leukemia (intraperitoneal) in CD2F1 (CDF1) mice. The conditions noted are these: higher = longer survival. The method, boiled down: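 Transplantable tumor in mice; compound-treated vs vehicle-treated groups. Read-out = treated/control ratio of the measured endpoint.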

The mark [1] stands for this setting: endpoint: mean survival time, dose: 100.0 mg/kg/injection, schedule: Q01DX009 (ip), vehicle: saline with Tween-80.
Setting [2] is: endpoint: mean survival time, dose: 200.0 mg/kg/injection, schedule: Q01DX009 (ip), vehicle: saline with Tween-80.
[3] abbreviates: endpoint: mean survival time, dose: 6.25 mg/kg/injection, schedule: Q01DX009 (ip), vehicle: saline.
[4] abbreviates: endpoint: mean survival time, dose: 12.5 mg/kg/injection, schedule: Q01DX009 (ip), vehicle: saline.
[5] abbreviates: endpoint: mean survival time, dose: 25.0 mg/kg/injection, schedule: Q01DX009 (ip), vehicle: saline.
[6] abbreviates: endpoint: mean survival time, dose: 50.0 mg/kg/injection, schedule: Q01DX001 (ip), vehicle: saline.
The mark [7] stands for this setting: endpoint: mean survival time, dose: 400.0 mg/kg/injection, schedule: Q01DX009 (ip), vehicle: saline with Tween-80.
[8] abbreviates: endpoint: mean survival time, dose: 6.25 mg/kg/injection, schedule: Q04DX003 (ip), vehicle: saline with Tween-80.
Setting [9] is: endpoint: mean survival time, dose: 12.5 mg/kg/injection, schedule: Q04DX003 (ip), vehicle: saline with Tween-80.
The mark [10] stands for this setting: endpoint: mean survival time, dose: 25.0 mg/kg/injection, schedule: Q04DX003 (ip), vehicle: saline with Tween-80.
[11] abbreviates: endpoint: mean survival time, dose: 100.0 mg/kg/injection, schedule: Q01DX009 (ip), vehicle: other.
[12] abbreviates: endpoint: mean survival time, dose: 200.0 mg/kg/injection, schedule: Q01DX009 (ip), vehicle: other.
Where [13] appears, read: endpoint: mean survival time, dose: 400.0 mg/kg/injection, schedule: Q01DX009 (ip), vehicle: other.
Where [14] appears, read: endpoint: mean survival time, dose: 100.0 mg/kg/injection, schedule: Q01DX001 (ip), vehicle: saline with Tween-80.
Where [15] appears, read: endpoint: mean survival time, dose: 200.0 mg/kg/injection, schedule: Q01DX001 (ip), vehicle: saline with Tween-80.
[16] abbreviates: endpoint: mean survival time, dose: 400.0 mg/kg/injection, schedule: Q01DX001 (ip), vehicle: saline with Tween-80.

On to `O=C(O)C(=O)O.[NH-]CC(O)CN(CC(O)CO)c1ccccc1.[Pt+2]` (stereo not given), for which the T/C is, setting by setting: (endpoint: median survival time, dose: 10.0 mg/kg/injection, schedule: Q04DX003 (ip), vehicle: distilled water + Tween-80) 100 % of control; (endpoint: median survival time, dose: 20.0 mg/kg/injection, schedule: Q04DX003 (ip), vehicle: distilled water + Tween-80) 98 % of control; (endpoint: median survival time, dose: 40.0 mg/kg/injection, schedule: Q04DX003 (ip), vehicle: distilled water + Tween-80) 101 % of control; (endpoint: median survival time, dose: 80.0 mg/kg/injection, schedule: Q04DX003 (ip), vehicle: distilled water + Tween-80) 102 % of control.
As for `COc1ccc(/C=C/c2ccc3ccccc3[n+]2C)c(OC)c1OC`, the T/C is, setting by setting: (endpoint: mean survival time, dose: 5.0 mg/kg/injection, schedule: Q01DX009 (ip), vehicle: saline) 98 % of control; (endpoint: mean survival time, dose: 10.0 mg/kg/injection, schedule: Q01DX009 (ip), vehicle: saline) 86 % of control.
In the case of `O=CC1C(=O)Nc2ccccc21` (stereo not given), the T/C is 96 % of control (endpoint: mean survival time, dose: 50.0 mg/kg/injection, schedule: Q01DX009 (ip), vehicle: saline with Tween-80); 96 % of control under setting [1]; 104 % of control under setting [2].
For the compound `OCCN1CCN(CC/C=C2/c3ccccc3Sc3ccc(Cl)cc32)CC1`, the T/C reads like this: (endpoint: mean survival time, dose: 1.56 mg/kg/injection, schedule: Q01DX009 (ip), vehicle: saline) 92 % of control and 97 % of control; (endpoint: mean survival time, dose: 3.12 mg/kg/injection, schedule: Q01DX009 (ip), vehicle: saline) 98 % of control; under setting [3], 104 % of control and 110 % of control; under setting [4], 116 % of control and 110 % of control; under setting [5], 122 % of control and 124 % of control; (endpoint: mean survival time, dose: 50.0 mg/kg/injection, schedule: Q01DX009 (ip), vehicle: saline) 106 % of control.
Turning to `CC1=CSCC(=O)N1`, the T/C by setting is: (endpoint: mean survival time, dose: 100.0 mg/kg/injection, schedule: Q04DX003 (ip), vehicle: saline with Tween-80) 101 % of control; (endpoint: mean survival time, dose: 200.0 mg/kg/injection, schedule: Q04DX003 (ip), vehicle: saline with Tween-80) 98 % of control; (endpoint: mean survival time, dose: 400.0 mg/kg/injection, schedule: Q04DX003 (ip), vehicle: saline with Tween-80) 108 % of control.
For `N=C(N)SCCc1ccccc1`, the T/C reads like this: (endpoint: mean survival time, dose: 12.5 mg/kg/injection, schedule: Q01DX001 (ip), vehicle: saline) 95 % of control; (endpoint: mean survival time, dose: 25.0 mg/kg/injection, schedule: Q01DX001 (ip), vehicle: saline) 100 % of control; under setting [6], 103 % of control.
Turning to `O=C(O)C(O)Cn1ccccc1=O` (stereo not given), the T/C is 104 % of control under setting [6]; 96 % of control (endpoint: mean survival time, dose: 100.0 mg/kg/injection, schedule: Q01DX001 (ip), vehicle: saline); 101 % of control (endpoint: mean survival time, dose: 200.0 mg/kg/injection, schedule: Q01DX001 (ip), vehicle: saline).
For the compound `C[P+]1(c2ccccc2)c2ccccc2Oc2ccccc21`, the T/C (endpoint: mean survival time, dose: 75.0 mg/kg/injection, schedule: Q01DX001 (ip), vehicle: saline) is 102 % of control.
`CC(=O)OCC1OC(n2cnc3c(=S)nc(N)[nH]c32)C(OC(C)=O)C1OC(C)=O` (stereo not given): the T/C by setting is: (endpoint: mean survival time, dose: 100.0 mg/kg/injection, schedule: Q01DX005 (ip), vehicle: saline) 112 % of control; (endpoint: mean survival time, dose: 200.0 mg/kg/injection, schedule: Q01DX005 (ip), vehicle: saline) 123 % of control.
With `CC(=O)Oc1ccc2c3c(ccc2c1)CCCC3`, the T/C reads like this: (endpoint: mean survival time, dose: 25.0 mg/kg/injection, schedule: Q01DX009 (ip), vehicle: Klucel (hydroxypropylcellulose) (HPC)) 116 % of control; (endpoint: mean survival time, dose: 50.0 mg/kg/injection, schedule: Q01DX009 (ip), vehicle: Klucel (hydroxypropylcellulose) (HPC)) 93 % of control; (endpoint: mean survival time, dose: 100.0 mg/kg/injection, schedule: Q01DX009 (ip), vehicle: Klucel (hydroxypropylcellulose) (HPC)) 104 % of control.
As for `O=C(O)/C(=C\c1ccccc1)NC(=O)c1ccccc1`, the T/C is 95 % of control under setting [1], 96 % of control under setting [2] and 105 % of control under setting [7].
Consider `CCN=C=NCCCN(C)C`, for which the T/C runs as follows: under setting [3], 105 % of control; under setting [4], 110 % of control; under setting [5], 100 % of control.
For the compound `CCCCCCCCCCCCCCCC(=O)N(C/C=C/CN(CCCN(C)C)C(=O)CCCCCCCCCCCCCCC)CCCN(C)C`, the T/C (endpoint: mean survival time, dose: 6.25 mg/kg/injection, schedule: Q01DX009 (ip), vehicle: saline with Tween-80) is 92 % of control; the T/C under setting [8] was 95 % of control; the T/C (endpoint: mean survival time, dose: 12.5 mg/kg/injection, schedule: Q01DX009 (ip), vehicle: saline with Tween-80) is 93 % of control; the T/C under setting [9] is 93 % of control; the T/C (endpoint: mean survival time, dose: 25.0 mg/kg/injection, schedule: Q01DX009 (ip), vehicle: saline with Tween-80) was 94 % of control; the T/C under setting [10] is 98 % of control.
With `CC(O)(CCc1ccccc1)CC(O)(C(F)(F)F)C(F)(F)F` (stereo not given), the T/C under setting [11] was 96 % of control; the T/C under setting [1] was 97 % of control; the T/C under setting [12] is 102 % of control; the T/C under setting [2] is 102 % of control; the T/C under setting [13] was 98 % of control; the T/C under setting [7] was 108 % of control.
As for `CNC(=O)c1ccc(C(=O)NC)cc1`, the T/C is, setting by setting: under setting [1], 86 % of control; under setting [2], 94 % of control; under setting [7], 96 % of control.
Turning to `CCC(C(=O)O)c1ccc(-c2ccccc2)cc1` (stereo not given), the T/C by setting is: under setting [14], 91 % of control; under setting [15], 93 % of control; under setting [16], 92 % of control.
In the case of `COc1cc2c(c(OC)c1OC)-c1ccc(OC)c(=O)cc1C(=O)CC2`, the T/C by setting is: (endpoint: mean survival time, dose: 5.0 mg/kg/injection, schedule: Q01DX Z (ip), vehicle: saline) 121 % of control; (endpoint: mean survival time, dose: 7.0 mg/kg/injection, schedule: Q01DX Z (ip), vehicle: saline) 121 % of control; (endpoint: mean survival time, dose: 10.0 mg/kg/injection, schedule: Q01DX Z (ip), vehicle: saline) 114 % of control.
In the case of `COC(=O)C(Cc1ccc(O)cc1)NC(=O)C(C)NC(=O)OCc1ccccc1` (stereo not given), the T/C under setting [1] is 92 % of control, the T/C under setting [2] is 93 % of control and the T/C under setting [7] was 88 % of control.
For the compound `CS(=O)(=O)OCCN(CCOS(C)(=O)=O)c1ccc(N=Nc2ccccc2C(=O)O)cc1`, the T/C runs as follows: (endpoint: mean survival time, dose: 1.56 mg/kg/injection, schedule: Q01DX009 (ip), vehicle: Klucel (hydroxypropylcellulose) (HPC)) 124 % of control; (endpoint: mean survival time, dose: 3.12 mg/kg/injection, schedule: Q01DX009 (ip), vehicle: Klucel (hydroxypropylcellulose) (HPC)) 155 % of control; (endpoint: mean survival time, dose: 6.25 mg/kg/injection, schedule: Q01DX009 (ip), vehicle: Klucel (hydroxypropylcellulose) (HPC)) 176 % of control.
Regarding `COc1cc2c(cc1OC)C1C(=CCC3c4cc(OC)c(OC)cc4CC[N+]31C)C=C2` (stereo not given), the T/C is, setting by setting: under setting [8], 102 % of control; under setting [9], 102 % of control; under setting [10], 98 % of control.
With `CC(C)OC(=O)Nc1ccc(F)cc1`, the T/C runs as follows: under setting [11], 94 % of control; under setting [12], 91 % of control; under setting [13], 100 % of control.
Turning to `CN1C(CC(O)(c2ccccc2)c2ccccc2)CCCC1CC(O)(c1ccccc1)c1ccccc1` (stereo not given), the T/C under setting [14] is 91 % of control, the T/C under setting [15] is 96 % of control and the T/C under setting [16] was 91 % of control.
As for `COc1cc(C2c3cc4c(cc3[C@@H](OC)[C@H]3COC(=O)C23)OCO4)cc(OC)c1O` (stereo not given in full), the T/C (endpoint: median survival time, dose: 1.25 mg/kg/injection, schedule: Q01DX009 (ip), vehicle: saline with Tween-80) is 108 % of control; the T/C (endpoint: median survival time, dose: 2.5 mg/kg/injection, schedule: Q01DX009 (ip), vehicle: saline with Tween-80) was 104 % of control; the T/C (endpoint: median survival time, dose: 5.0 mg/kg/injection, schedule: Q01DX009 (ip), vehicle: saline with Tween-80) is 105 % of control; the T/C (endpoint: median survival time, dose: 10.0 mg/kg/injection, schedule: Q01DX009 (ip), vehicle: saline with Tween-80) is 103 % of control.
Regarding `CC1(c2ccc3ccccc3c2)OC(=O)c2ccccc21` (stereo not given), the T/C was 111 % of control (endpoint: median survival time, dose: 12.5 mg/kg/injection, schedule: Q04DX003 (ip), vehicle: saline with Tween-80); 100 % of control (endpoint: median survival time, dose: 25.0 mg/kg/injection, schedule: Q04DX003 (ip), vehicle: saline with Tween-80); 111 % of control (endpoint: median survival time, dose: 50.0 mg/kg/injection, schedule: Q04DX003 (ip), vehicle: saline with Tween-80); 88 % of control (endpoint: median survival time, dose: 100.0 mg/kg/injection, schedule: Q04DX003 (ip), vehicle: saline with Tween-80).
